± gives the expanded uncertainty stated by the source.
What was measured:
[1] = Crystal; DSC
[2] = Molar enthalpy of transition or fusion; settings: Crystal; DSC

Triple point temperature [1]: 424.01 ± 1 K | Molar enthalpy of transition or fusion [2]: 3.23 ± 0.105 kcal/mol
SMILES: Fc1c(I)c(F)c(I)c(F)c1I [1,3,5-trifluoro-2,4,6-triiodobenzene]
